Where no end group is shown, it is not given here. [ ]: non-standard residue; d: D form. Tyr(3-I) = N[C@@H](Cc1ccc(O)c(I)c1)C(=O)O
Tested on: human AL and ATTR amyloid in tissue sections
Assay: Peptide histochemistry and overlay micro-autoradiography on human tissue sections
Format: binding
Conditions: ~5 ng/mL, 1 h room temperature; FFPE human AL and ATTR sections
Description: For autoradiography, 6- μm-thick sections were cut from formalin-fixed, paraffin-embedded blocks, containing tissues from mice that had received ^125I-p5+14. Mice were euthanized at 1 h pi of radiotracer. The sections were placed on Plus microscope slides (ThermoFisher Scientific, Waltham, MA, USA), dipped in NTB-2 emulsion (Eastman Kodak, Rochester, NY, USA), stored in the dark and developed after a 4 day exposure. Each section was counterstained with hematoxylin and eosin. […] Blinded qualitative assessment of amyloid load in Congo red-stained sections of liver and spleen was performed by an experienced amyloid researcher who ranked each tissue on a 0 to 4+ scale. All tissue sections were examined using a Leica DM500 light microscope (Leica, Wetzlar, Germany) fitted with cross-polarizing filters (for Congo red). Digital microscopic images were acquired using a cooled CCD camera (SPOT; Diagnostic Instruments, Sterling Heights, MI, USA).
Peptide p5+14 (with a cysteine residue at the N-terminal) was prepared for tissue staining by either biotinylation, according to the manufacturer’s instructions, using a maleimide-biotin conjugation kit (Pierce, Grand Island, NY, USA), or for overlay-micoautoradiography by radioiodination with ^125I, as described above. […]

GGG[Tyr(3-I)]SKAQKAQAKQAKQAQKAQKAQAKQAKQAQKAQKAQAKQAKQ [125I-p5+14]
overlay micro-autoradiography on human tissue sections: co-localized with both AL and ATTR amyloid

— article PMC4442108, “Preclinical Validation of the Heparin-Reactive Peptide p5+14 as a Molecular Imaging Agent for Visceral Amyloidosis” (Molecules, 2015)
